In article PMC7485652 (Saudi Journal of Medicine & Medical Sciences, 2020):
Read-outs that look alike come from different tables or passages of the source.

Legend:
[1] = for plasma level of quetiapine / hmax: male rats; for hmax: mean±SD
[2] = cited from earlier work; for decrease of plasma concentration of quetiapine: administration of lamotrigine
CYP3A4 = details: cited from earlier work
[3] = with probenecid, by inhibition of UGT glucuronidation enzymes; cited from earlier work
[4] = quetiapine 50 mg/kg oral after probenecid 50 mg/kg oral
[5] = quetiapine alone, 50 mg/kg single oral dose

OCCOCCN1CCN(C2=Nc3ccccc3Sc3ccccc32)CC1 [Quetiapine]
plasma level of quetiapine [1, 4]: 323 ± 128 ng/mL
hmax [1, 4]: 0.63 ± 0.3 h
plasma level of quetiapine [1, 5]: 155 ± 37 ng/mL
hmax [1, 5]: 5 ± 2 h
difference in half-life of quetiapine between groups ([1]; quetiapine plus probenecid vs quetiapine alone, rats): no significant difference
decrease of plasma concentration of quetiapine ([2]; study with 22 patients): 58%
decrease of plasma concentration of quetiapine ([2]; study with 144 patients): 17%
increase of plasma level of quetiapine ([2]; co-administered valproic acid, elderly patients): 77%
increase of Cmax of quetiapine ([2]; coadministered with sodium divalproex, adult patients, nonsignificant): 17%
change in AUC τ of quetiapine ([2]; coadministered with sodium divalproex, adult patients): no changes
effect of coadministration on quetiapine ([2]; coadministered with valproic acid, adult patients, ref Santoro et al. 20): nonsignificant results

CCCC(CCC)C(=O)O [Valproic acid]
inhibition of CYP3A4 (CYP3A4): weak inhibitor

Cc1cc2c(s1)Nc1ccccc1N=C2N1CCN(C)CC1 [olanzapine]
level of olanzapine [3]: increases
